Reference: patent EP4659758A1, “ANTI-AGING COMPOSITION” (Mitsubishi Corporation Life Sciences Limited, priority 2023, dated 2024)

How the values were obtained:
Assay type in all cases: cell-based
B16 mouse melanoma cells = test: Melanin production suppression test in cultured cells (absorbance at 405 nm); conditions: α-MSH 200 nM induction; for melanin production amount: 0.02 mM or 0.05 mM, relative to reference sample (induction only) = 100, p < 0.01
Procedure: B16 mouse melanoma cells were seeded in a 6 well plate (2.0 × 10^4 cells/well), and cultured for 24 hours in D-MEM medium to which 5% fetal bovine serum was added with respect to the medium (5%CO2, 37°C). […] The obtained pellets were washed twice with PBS (-), 150 µL of a 1 M sodium hydroxide solution was then added, and the mixture was treated at 100°C for 10 minutes to dissolve the pellets, thereby preparing a reference sample. […] One hundred µL of a sample of each test section was added to a 96 well plate, and the absorbance at 405 nm was measured with a microplate reader (n = 3). […] The significant difference test was performed on the measured value of the reference sample by the Dunnett method (*p < 0.05, **p < 0.01.).

[1] = system: Normal human epidermal keratinocytes; test: Suppression of decrease in hyaluronic acid production capability due to aging induction (ELISA); conditions: 50 µM, 0.5 mM hydrogen peroxide, 24 hours
Procedure: Normal human epidermal keratinocytes were seeded in 24 well plates (1.0 × 10^5 cells/well, N = 3) and precultured for 24 hours (5%CO2, 37°C). As a medium, a commercially available keratinocyte growth medium (PromoCell) was used. Thereafter, the wells were washed once with PBS (-), then replaced with a keratinocyte growth medium dissolved so that the final concentration of Sample 1 was 50 µM, and further incubated for 30 minutes. Thereafter, normal human epidermal keratinocytes were treated with a medium adjusted to have a final concentration of hydrogen peroxide of 0.5 mM to induce aging. Thereafter, the medium was replaced with a new keratinocyte growth medium and incubated for 24 hours, and then the amount of hyaluronic acid was quantified by an ELISA method using a hyaluronic acid quantification kit (Cosmo Bio). For comparison, a test section not treated with oxidized glutathione trisulfide was provided.
The hyaluronic acid production amount in each of the test sections was shown as a relative value when the hyaluronic acid production amount in the test section in which neither oxidized glutathione trisulfide treatment nor aging induction was performed was taken as 100. […]

Normal human fibroblasts [2] = test: as above; conditions: 50 µM or 100 µM, 0.5 mM hydrogen peroxide, 24 hours; for hyaluronic acid production amount: relative value, compared with only aging induction
Procedure: Normal human fibroblasts were seeded in 24 well plates (8.0 × 10^4 cells/well, N = 3) and precultured for 24 hours (5% CO2, 37°C). As a medium, MEM-α, nucleosides medium (Gibco) containing fetal bovine serum (10% of serum-free medium was externally added) was used. Thereafter, the wells were washed once with PBS (-), then replaced with MEM-α, nucleoside medium containing fetal bovine serum (5% of serum-free medium was externally added) dissolved so that the final concentration of Sample 1 or Sample 2 was 50 µM or 100 µM, and further incubated for 30 minutes. Thereafter, fibroblasts were treated with a medium adjusted so that the final concentration of hydrogen peroxide was 0.5 mM to induce aging. Thereafter, the culture medium was changed to MEM-α, nucleoside medium containing fetal bovine serum (5% of serum-free culture medium was externally added) and incubated for 24 hours, and then the amount of hyaluronic acid was quantified by ELISA using a hyaluronic acid quantification kit (Cosmo Bio Inc.).
The hyaluronic acid production amount in each test section was shown as a relative value when the hyaluronic acid production amount in each sample and the test section in which aging induction was not performed was taken as 100. Regarding the hyaluronic acid production amount, a significant difference test (t-test, two-tailed) between the two groups of the test section for Sample 1 and the test section for which only the aging induction was performed respectively, and a significant difference test between the test section for Sample 2 and the test section for which only the aging induction was performed were each performed, and "*(p < 0.05)" was marked for those in which a significant difference was recognized.

[3] = system: Normal human epidermal keratinocytes; test: Suppression of decrease in proliferation capability after hydrogen peroxide aging induction (MTT assay); conditions: 50 µM or 100 µM, 0.5 mM hydrogen peroxide aging induction; relative to untreated non-induced = 100; compared with only aging induction
Procedure: Normal human epidermal keratinocytes were seeded in 96 well plates (1.0 × 10^4 cells/well, N = 3) and precultured for 24 hours (5%CO2, 37°C). As a medium, a commercially available keratinocyte growth medium (PromoCell) was used. Thereafter, the wells were washed once with PBS (-), then replaced with a keratinocyte growth medium dissolved so that the final concentration of Sample 1 was 50 µM or 100 µM, and further incubated for 30 minutes. Thereafter, normal human epidermal keratinocytes were treated with a medium adjusted to have a final concentration of hydrogen peroxide of 0.5 mM to induce aging. Thereafter, an MTT assay was performed according to a conventional method, and the survival rate of normal human epidermal keratinocytes was calculated as a relative value when the survival rate of cells in a test section in which neither the treatment with oxidized glutathione trisulfide nor the aging induction was performed was taken as 100.
For comparison, a test section in which only aging induction was performed without treatment with oxidized glutathione trisulfide was set.
Regarding the survival rate, a significant difference test (t-test, two-tailed) between the two groups of the test section of Sample 1 and the test section in which only aging induction was performed was performed respectively.

Normal human fibroblasts [4] = test: as above; conditions: 50 µM or 100 µM, 0.5 mM hydrogen peroxide aging induction; relative to untreated non-induced = 100; compared with only aging induction and with 100 µM reduced glutathione, p < 0.005
Procedure: Normal human fibroblasts were seeded in 96 well plates (3.0 × 10^3 cells/well, N = 3) and precultured for 24 hours (5% CO2, 37°C). As a medium, MEM-α, nucleosides medium (Gibco) containing fetal bovine serum (10% of serum-free medium was externally added) was used. Thereafter, the wells were washed once with PBS (-), then replaced with MEM-α, nucleoside medium containing fetal bovine serum (5% of serum-free medium was externally added) dissolved so that the final concentration of Sample 1 or Sample 2 was 50 µM or 100 µM, and further incubated for 30 minutes. Thereafter, fibroblasts were treated with a medium adjusted so that the final concentration of hydrogen peroxide was 0.5 mM to induce aging. Thereafter, an MTT assay was performed according to a conventional method, and the survival rate of fibroblasts was calculated as a relative value when the survival rate of cells in the test section in which neither treatment nor aging induction was performed was taken as 100.
For comparison, a test section in which only aging induction was performed and a test section in which reduced glutathione was 100 µM was set instead of Sample 1. […]

tyrosinase = biological target: T1, tyrosinase (Mus musculus, UniProt P11344); test: Tyrosinase activity suppression test (L-DOPA, absorbance at 490 nm, cell extract); conditions: 0.05 mM or 0.1 mM at melanin induction
T1 construct: a protein extract containing tyrosinase derived from B16 mouse melanoma cells; endogenous in cells; host or cells: B16 mouse melanoma cells, alpha-MSH induced; RIPA buffer lysate supernatant
T1 sequence (P11344 19-533): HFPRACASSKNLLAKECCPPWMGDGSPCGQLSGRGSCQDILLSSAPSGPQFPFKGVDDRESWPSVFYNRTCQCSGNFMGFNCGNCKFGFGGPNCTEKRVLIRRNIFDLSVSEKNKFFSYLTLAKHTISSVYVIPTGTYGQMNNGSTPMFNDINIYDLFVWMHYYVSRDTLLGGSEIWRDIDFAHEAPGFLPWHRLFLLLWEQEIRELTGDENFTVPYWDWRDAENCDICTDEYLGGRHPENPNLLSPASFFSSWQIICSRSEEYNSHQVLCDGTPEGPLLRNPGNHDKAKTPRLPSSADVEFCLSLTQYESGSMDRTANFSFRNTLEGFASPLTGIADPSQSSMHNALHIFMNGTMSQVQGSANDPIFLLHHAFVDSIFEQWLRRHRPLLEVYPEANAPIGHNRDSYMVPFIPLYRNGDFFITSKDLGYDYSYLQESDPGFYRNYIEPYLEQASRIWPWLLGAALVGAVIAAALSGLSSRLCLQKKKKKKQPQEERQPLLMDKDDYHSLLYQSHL
Source text: In addition, the tyrosinase activity in the present invention can be confirmed by adding L-DOPA having a known concentration to a protein extract containing tyrosinase derived from B16 mouse melanoma cells in which melanin is induced by a melanin inducer such as α-MSH (melanocyte stimulating hormone) to react, measuring the absorbance at 490 nm, and correcting the absorbance with the protein concentration in the protein extract. The tyrosinase activity inhibitory effect can be known by comparing the value of the absorbance at 490 nm corrected by the protein concentration measured by adding the test substance at the time of melanin induction and the same operation with the value of the test section to which the test substance is not added.
B16 mouse melanoma cells were seeded in a 6 well plate (2.0 × 10^4 cells/well), and cultured for 24 hours in D-MEM medium to which 5% fetal bovine serum was added with respect to the medium (5%CO2, 37°C). […] The protein concentration of the obtained sample was measured by the BCA method.
The same operation was performed except that melanin induction was not performed, and a reference sample was obtained. […] Fifty µL of a sample of each test section was placed in a 96 well plate (n=3), 50 µL of 0.8 mg/mL L-DOPA was added, the mixture was reacted at 37°C for 1 hour, and then the absorbance at 490 nm was measured with a microplate reader. […]

| SMILES | melanin production amount (B16 mouse melanoma cells) | hyaluronic acid production capability ([1]; compared with control group without aging induction, no significant difference) | hyaluronic acid production amount ([1]; relative value, compared with only aging induction) | hyaluronic acid production capability (Normal human fibroblasts [2]; compared with test sections without aging induction, no significant difference) | hyaluronic acid production amount (Normal human fibroblasts [2]) | survival rate of normal human epidermal keratinocytes (cell proliferation rate) [3] | survival rate of fibroblasts (cell proliferation rate) (Normal human fibroblasts [4]) | tyrosinase activity (tyrosinase; compared with reference sample (no melanin induction) = 100) | tyrosinase activity (tyrosinase; compared with test section with only melanin induction) | melanin production suppressing effect (B16 mouse melanoma cells; 3 mM, compared with 0.02 mM Sample 1) |
| --- | --- | --- | --- | --- | --- | --- | --- | --- | --- | --- |
| N[C@@H](CCC(=O)N[C@@H](CSSSC[C@H](NC(=O)CC[C@H](N)C(=O)O)C(=O)NCC(=O)O)C(=O)NCC(=O)O)C(=O)O [Sample 1, oxidized glutathione trisulfide] | significantly low | same hyaluronic acid production capability as that of the control group in which aging is not induced | significantly higher than that in the test section of only aging induction | same hyaluronic acid production capability as those of the test sections that did not induce aging | significantly higher than that in the test section of only aging induction | significant cell proliferation rate | significant cell proliferation rate | same degree of tyrosinase activity as the reference sample | significantly lower than the test section in which only melanin induction was performed | – |
| CC(=O)N[C@@H](CSSSC[C@H](NC(C)=O)C(=O)O)C(=O)O [Sample 2, oxidized NAC trisulfide] | significantly low | – | – | – | significantly higher than that in the test section of only aging induction | – | significant cell proliferation rate | – | – | – |
| N[C@@H](CCC(=O)N[C@@H](CS)C(=O)NCC(=O)O)C(=O)O [reduced glutathione, reference compound] | – | – | – | – | – | – | – | – | – | same melanin production suppressing effect as the 0.02 mM test section of Sample 1 |
